Measured values from article PMC4113009, “Dihydroisoxazole inhibitors of Anopheles gambiae seminal transglutaminase AgTG3” (Malaria Journal, 2014).

Key:
hTG2 = conditions: cited from earlier work
AgTG3 = AgTG3 (Anopheles gambiae, UniProt D2K8K8); assay: biochemical; conditions: 100 μM, triplicate
Experimental: Plugin-C (25 μg/well) was incubated in black 96-well Ni-coated plates (Pierce 15342) for 2 h at room temperature or overnight at 4°C. Plates were washed three times with 200 μL of TBS and loaded with 0.5 μg of AgTG3 in 50 μL TBS buffer. DHI inhibitors were added for 1 h to block the enzyme, followed by 50 μL of 2× assay buffer (2× TBS, 20 mM CaCl2, 100 μM FITC-CAD, 2 mM DTT). Wells were incubated for 60 min at room temperature, washed three times with 200 μL of TBS, and filled to a final volume of 100 μL for fluorescence measurements in a microplate reader (Biotek Synergy 2). The z-score was calculated based on the mean and standard deviation of three replicates of inhibitor compared to a DMSO control, zi=x¯DMSO-x¯i/σDMSO+σi .
The targeted chemical library was screened for inhibition of AgTG3 at 100 μM in a FITC-CAD plate assay (Figure 3A), performed in triplicate as previously described. Hit-calling was based on >67% decrease in fluorescence compared to DMSO and z > 5. Seven compounds fulfilled these criteria in the primary assay.
To verify the results of this preliminary assay, dose–response curves in the range of 0.5–100 μM were determined for 27 structurally related compounds within the targeted library (Additional file 3: Table S2 and Additional file 4: Table S3). […] Selected stereoisomers present in the targeted library were compared in equivalent dose–response assays. Inhibition of AgTG3 was specific for the (S)-DHI isomer of 1 (Figure 4A), the (R) isomer (4) displaying no activity (IC50 > 100 μM).

AgTG3, sequence (D2K8K8 entry or part of it): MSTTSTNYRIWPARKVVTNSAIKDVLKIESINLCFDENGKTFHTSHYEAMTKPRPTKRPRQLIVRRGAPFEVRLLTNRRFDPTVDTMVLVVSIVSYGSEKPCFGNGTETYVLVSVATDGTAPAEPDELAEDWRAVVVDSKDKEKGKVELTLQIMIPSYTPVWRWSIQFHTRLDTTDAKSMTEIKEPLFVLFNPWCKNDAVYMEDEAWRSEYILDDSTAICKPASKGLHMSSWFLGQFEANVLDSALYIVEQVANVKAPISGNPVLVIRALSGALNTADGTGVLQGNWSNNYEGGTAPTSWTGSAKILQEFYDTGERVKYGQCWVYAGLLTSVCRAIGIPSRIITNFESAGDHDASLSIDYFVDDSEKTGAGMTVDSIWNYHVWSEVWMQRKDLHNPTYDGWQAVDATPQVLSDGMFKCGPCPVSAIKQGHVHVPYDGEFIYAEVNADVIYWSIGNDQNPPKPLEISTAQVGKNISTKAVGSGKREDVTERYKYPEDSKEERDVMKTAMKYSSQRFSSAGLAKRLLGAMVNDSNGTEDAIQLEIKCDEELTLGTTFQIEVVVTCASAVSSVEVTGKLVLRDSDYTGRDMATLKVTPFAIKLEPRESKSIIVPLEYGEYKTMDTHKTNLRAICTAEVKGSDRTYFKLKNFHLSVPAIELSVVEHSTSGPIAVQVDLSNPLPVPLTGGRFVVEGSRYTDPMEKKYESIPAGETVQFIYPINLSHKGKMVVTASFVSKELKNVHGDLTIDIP

NNC(=O)CSc1nc2scc(-c3ccccc3)c2c(=O)n1-c1ccccc1 [LDN-27219, reference compound]
IC50 (hTG2): < 10 µM
Inhibition of AgTG3 in primary screen (AgTG3): neither the eight acylidene oxoindoles tested nor the thienopyrimidinone LDN-27219 inhibited AgTG3
Inhibition of AgTG3 in primary screen (AgTG3; listed as LD-217912): neither acylidene oxoindoles nor the thienopyrimidinone LD-217912 showed any inhibition
